According to patent US8445291B2, “Method for detecting target substance, and tag, DNA, vector, probe and detection kit for use therewith” (National University Corporation Tokyo Medical and Dental …, priority 2007, dated 2013):

Tests used:
[1] = Circular dichroism spectroscopy of tag peptide, probe peptide and tag-probe mixture; type: physicochemical; details: for probe peptides that formed an α-helix structure: probe peptide alone; for tag peptides that formed an α-helix structure: tag peptide alone
Procedure: The circular dichroism spectrum of the tag polypeptides and the probe polypeptides of Examples 1 to 3 were measured.
The structures of the tag peptide, the probe peptide and the tag-probe complex were analyzed by circular dichroism spectroscopy.
In each of FIGS. 3A to 3C, the horizontal axis represents wavelength used for measurement whereas the vertical axis represents molar residue ellipticity.

probe peptide [2] = assay: Fluorescence titration of probe peptide with tag peptide (HEPES buffer), incl. Job's plot; type: binding; details: for fluorescence wavelength ultimately shifted to on addition of tag peptide: 0.5 μM probe peptide, 0.1 to 2.0 equivalents of tag peptide; for Kd: tag peptide to probe peptide, theoretical formula assuming 1 to 1 interaction, fluorescence at 505 nm, read-out: dissociation constant Kd
Procedure: Fluorescence titration was performed for the tag polypeptides and the probe polypeptides of Examples 1 to 3.
In the fluorescence titration, the rate of change of the fluorescence intensity at 505 nm was plotted against the concentration of the tag peptide and the dissociation constant was calculated from a theoretical formula assuming 1 to 1 binding of the tag peptide to the probe peptide.
In Example 1, the fluorescence intensity at 505 nm in the presence of 1 equivalent of tag peptide was 18 times as high as that measured in the absence of the tag peptide.
Also in the fluorescence titration, with the total concentration of the tag peptide and the probe peptide being fixed at 1.0 μM, the ratio of the respective concentrations of the tag peptide and the probe peptide was varied and the fluorescence intensity at 505 nm was measured. The measured fluorescence intensity was plotted against the ratio of the tag peptide concentration to the total concentration of the tag peptide and the probe peptide and was analyzed by the theoretical formula assuming 1 to 1 binding of the tag peptide to the probe peptide.

[3] = system: tag peptide represented by structural formula (8); assay: Crosslink reaction of chloroacetylated probe peptide with tag peptide; type: biochemical; details: 10 minutes after start, 1.0 μM tag and 1.0 μM probe, 25° C., pH 7.2
Procedure: The probe peptide for crosslink reaction obtained in Example 7 was used to perform a crosslink reaction.
The probe peptide was crosslinked to a tag peptide represented by the following structural formula (8). The tag polypeptide is identical to that used in Example 1.
To a 1.0 μM tag peptide solution (50 mM HEPES buffer (pH 7.2, 10 mM NaCl)), the probe peptide was added to a concentration of 1.0 μM and the reaction was carried out at 25° C.-1 mL samples were collected from the reaction mixture after 1, 5, 10, 15, 20 and 30 minutes. 1 mL of a 10% aqueous acetic acid solution was added to each sample to quench the reaction. The samples were analyzed by HPLC using a C18 reversed-phase analytical column (4.6×250 mm). The crosslinked product was identified by ESI-TOF MS. The yield of the reaction was calculated from the peak area ratio of HPLC.
In FIG. 10, the horizontal axis represents elapsed time after addition of the probe peptide whereas the vertical axis represents the yield of the crosslink reaction.

[4] = system: fused protein of DsRed and PKC having at its N terminal end a tag polypeptide of sequence (A); assay: Imaging of PKC in cytoplasm of CHO.K1 cells through formation of tag-probe complex (observation of NBD); type: cell-based
Procedure: CHO.K1 cells expressing a fused protein of DsRed and PKC having at its N terminal end a tag polypeptide of sequence (A) as indicated below were prepared using Lipofectamin LTX (Invitrogen).
Subsequently, a permeabilization buffer (20 mM Hepes, pH 7.4, 140 mM KCl, 50 μg/mL saponin, 5 mM oxalic acid) was added to the thus-prepared CHO.K1 cells. After left to stand on ice for 10 min, the cells were washed with PBS, followed by incubating on ice for 20 min in PBS. Thereafter, the cells were incubated in PBS at room temperature for 2 min and then 37° C. for 2 min. Further, the cells were incubated at 37° C. for 30 min in a conditioned medium (Ham's F12) to which a probe indicated by sequence (B) (probe concentration: 1 μM (Final conc.)) had been added.
The medium was changed to a DMEM with no phenol red, and then, the cells were observed by a fluorescence microscope (IX81 (Olympus), objective lens: 20 times) at predetermined emission wavelength (490 nm to 510 nm).
(§1) Separately, before treated with the permeabilization buffer, the above-prepared CHO.K1 cells were treated for 10 min with 10 mM DMSO containing PDBu (phorbol 12,13 dibutyrate; final concentration: 10 μM). The cells were observed by the fluorescence microscope similar to the above.

[5] = system: fused protein of DsRed and PKC having at its N terminal end a tag polypeptide indicated by sequence (A); assay: Localization of PKC in cytoplasm (DsRed fluorescence); type: cell-based; details: CHO.K1 cells treated for 10 min, final concentration 10 μM; 515 nm to 560 nm
Procedure: as §1
The following was used as a control; a group which was not treated with PDBu, and CHO.K1 cells to which only DIC was introduced (note that DIC is a vector used for introducing into cells the above-mentioned fused protein of DsRed and PKC having at its N terminal end a tag polypeptide indicated by sequence (A). The cells were observed as mentioned above at predetermined wavelength (515 nm to 560 nm). The results are shown in FIG. 11.

probe peptide [6] = assay: Fluorescence titration in cell lysate; type: binding; details: HeLa cell lysate, 0.1 to 4.0 equivalents of tag peptide
Procedure: Fluorescence titration was performed for the tag polypeptides and the robe polypeptides of Example 1 in a cell lysate.
10 mL of a HeLa cell culture solution containing 1.0×10^6 cells/mL were dispensed in a centrifugal tube and the cells were centrifuged for 5 minutes at 1000 rpm to obtain a pellet of HeLa cells. The pellet was dispersed in 1 mL HEPES buffer and the dispersion was sonicated for 10 minutes. Subsequently, the dispersion was filtered through a membrane filter to remove undesired materials and thus give a cell lysate. The probe peptide was dissolved in the cell lysate to a concentration of […]. To this solution, a tag peptide solution was added dropwise until the solution contained 0.1 to 4.0 equivalents of the tag peptide. The resulting solution was subjected to fluorescence spectroscopy.
In FIG. 9, the horizontal axis represents fluorescence wavelength whereas the vertical axis represents fluorescence intensity

Compound | probe peptides that formed an α-helix structure [1] | tag peptides that formed an α-helix structure [1] | tags and probes that formed an α-helix structure in the tag-probe mixture [1] | fluorescence wavelength ultimately shifted to on addition of tag peptide (probe peptide [2]) | Kd (probe peptide [2]) | yield of the crosslink reaction [3] | NBD-derived fluorescence in cells ([4]; 1 μM probe, permeabilized CHO.K1 cells, around 510 nm) | localization of NBD-derived fluorescence ([4]; CHO.K1 cells treated for 10 min, final concentration 10 μM) | localization of DsRed-derived fluorescence [5] | fluorescence intensity at 505 nm relative to that measured in the absence of the tag peptide (probe peptide [2]; in the presence of 1 equivalent of tag peptide) | comparison of fluorescence intensity among Examples 1 to 3 (probe peptide [2]; overlapped spectra of highest peaks, FIG. 5) | spectral changes of probe peptide as tag peptide was added (probe peptide [6])
ALKKELEALKKELEALKKELAGGCGGALEKELEALEKELEALEKELA [Example 2] | 53% | 81% | 78% | 516 nm | 24.3 nM | – | – | – | – | – | – | –
ClAc-{Gly}{Ala-Leu-Lys-Lys-Lys-Leu-Glu}{Ala-Leu-Lys-Lys-Lys-Dap(NBD)-Glu}{Ala-Leu-Lys-Lys-Lys-Leu-Ala} [Example 7] | – | – | – | – | – | at least 80% | increase in fluorescence intensity | – | – | – | – | –
CCCC(=O)O[C@@H]1[C@@H](C)[C@@]2(O)[C@@H](C=C(CO)C[C@]3(O)C(=O)C(C)=C[C@@H]23)[C@@H]2C(C)(C)[C@]12OC(=O)CCC [PDBu, phorbol 12,13 dibutyrate, reference compound] | – | – | – | – | – | – | – | locally observed | locally observed | – | – | –
ALKKELEAGKKELEALKKELAGGCGGALEKELEALEKEGEALEKELA [Example 3] | 53% | 18% | 41% | 526 nm | 755 nM | – | – | – | – | – | – | –
ALKKELEAAKKELEALKKELAGGCGGALEKELEALEKEAEALEKELA [Example 1] | 53% | 58% | 71% | 505 nm | 17.5 nM | – | – | – | – | 18 times | highest fluorescence intensity | substantially the same spectral changes as in HEPES buffer
